Measured values as given in PubChem BioAssay (NCI).
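Protocol summary: plate cells (96-well), add compound at 5 concentrations, incubate 48 h, interpolate endpoints linearly. The concentration for full growth arrest is given as TGI.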

How the values were obtained:
Assay in all cases: NCI tumour cell line growth inhibition, 48 h
786-0 renal = system: 786-0 renal
A498 renal = system: A498 renal
HCT-116 colon = system: HCT-116 colon
HCT-15 colon = system: HCT-15 colon
HL-60(TB) leukemia = system: HL-60(TB) leukemia
HOP-62 NSCLC = system: HOP-62 NSCLC
IGROV1 ovarian = system: IGROV1 ovarian
KM12 colon = system: KM12 colon
MDA-MB-231 breast = system: MDA-MB-231 breast
NCI-H522 lung = system: NCI-H522 lung
NCI/ADR-RES ovarian = system: NCI/ADR-RES ovarian
SF-268 CNS = system: SF-268 CNS
SK-MEL-2 melanoma = system: SK-MEL-2 melanoma
SK-MEL-5 melanoma = system: SK-MEL-5 melanoma
SK-OV-3 ovarian = system: SK-OV-3 ovarian
SNB-19 CNS = system: SNB-19 CNS
SR leukemia = system: SR leukemia
SW-620 colon = system: SW-620 colon
TK-10 renal = system: TK-10 renal

## C=C1C(=O)C23CC1C[C@H](OC(C)=O)[C@H]2C1(C)C(OC(C)=O)C[C@H](O)C(C)(C)[C@H]1C(=O)[C@@H]3OC(C)=O (stereo partly drawn)
786-0 renal
  TGI: 9.64 µM
A498 renal
  TGI: 29.7 µM
HCT-116 colon
  TGI: 6.16 µM
HCT-15 colon
  TGI: 11 µM
HL-60(TB) leukemia
  TGI: 4.47 µM
HOP-62 NSCLC
  TGI: 42.9 µM
IGROV1 ovarian
  TGI: 25.8 µM
KM12 colon
  TGI: 23.8 µM
MDA-MB-231 breast
  TGI: 11.7 µM
NCI-H522 lung
  TGI: 3.48 µM
NCI/ADR-RES ovarian
  TGI: 35.6 µM
SF-268 CNS
  TGI: 25.3 µM
SK-MEL-2 melanoma
  TGI: 25.9 µM
SK-MEL-5 melanoma
  TGI: 27.4 µM
SK-OV-3 ovarian
  TGI: 32 µM
SNB-19 CNS
  TGI: 34.6 µM
SR leukemia
  TGI: > 24.7 µM
SW-620 colon
  TGI: 3.6 µM
TK-10 renal
  TGI: 5.82 µM

## O=C1NC(=O)C(Cc2ccccc2)(c2cccnc2)N1 (stereo not drawn)
786-0 renal
  TGI: > 100 µM
A498 renal
  TGI: > 100 µM
HCT-116 colon
  TGI: > 100 µM
HCT-15 colon
  TGI: > 100 µM
HL-60(TB) leukemia
  TGI: > 100 µM
HOP-62 NSCLC
  TGI: > 100 µM
IGROV1 ovarian
  TGI: > 100 µM
KM12 colon
  TGI: > 100 µM
MDA-MB-231 breast
  TGI: > 100 µM
NCI-H522 lung
  TGI: > 100 µM
NCI/ADR-RES ovarian
  TGI: > 100 µM
SF-268 CNS
  TGI: > 100 µM
SK-MEL-2 melanoma
  TGI: > 100 µM
SK-MEL-5 melanoma
  TGI: > 100 µM
SK-OV-3 ovarian
  TGI: > 100 µM
SNB-19 CNS
  TGI: > 100 µM
SR leukemia
  TGI: > 100 µM
SW-620 colon
  TGI: > 100 µM
TK-10 renal
  TGI: > 100 µM

## O=C(N/N=C/c1ccc2c(c1)OCO2)Nc1ccccc1Cl
786-0 renal
  TGI: > 55 µM
A498 renal
  TGI: 35.6 µM
HCT-116 colon
  TGI: > 100 µM
HCT-15 colon
  TGI: > 100 µM
HL-60(TB) leukemia
  TGI: > 23.1 µM
HOP-62 NSCLC
  TGI: > 100 µM
IGROV1 ovarian
  TGI: > 35.3 µM
KM12 colon
  TGI: > 100 µM
MDA-MB-231 breast
  TGI: > 100 µM
NCI-H522 lung
  TGI: 1.1 µM
NCI/ADR-RES ovarian
  TGI: 2.4 µM
SF-268 CNS
  TGI: > 82.5 µM
SK-MEL-2 melanoma
  TGI: 25.2 µM
SK-MEL-5 melanoma
  TGI: 15.3 µM
SK-OV-3 ovarian
  TGI: > 24.9 µM
SNB-19 CNS
  TGI: > 79.3 µM
SR leukemia
  TGI: > 34.2 µM
SW-620 colon
  TGI: > 100 µM
TK-10 renal
  TGI: 21 µM

## COc1ccc2cc(CNCCCCCCCCCCCCNCc3ccc4cc(OC)ccc4c3)ccc2c1
786-0 renal
  TGI: 30.1 µM
A498 renal
  TGI: 31.9 µM
HCT-116 colon
  TGI: 32.8 µM
HCT-15 colon
  TGI: 50.9 µM
HL-60(TB) leukemia
  TGI: 34.9 µM
HOP-62 NSCLC
  TGI: 39.2 µM
IGROV1 ovarian
  TGI: 29.9 µM
KM12 colon
  TGI: 40.1 µM
MDA-MB-231 breast
  TGI: > 51.5 µM
NCI-H522 lung
  TGI: 33.8 µM
NCI/ADR-RES ovarian
  TGI: 43 µM
SF-268 CNS
  TGI: 27.2 µM
SK-MEL-2 melanoma
  TGI: 41.1 µM
SK-MEL-5 melanoma
  TGI: > 54 µM
SK-OV-3 ovarian
  TGI: 32.7 µM
SNB-19 CNS
  TGI: 31.3 µM
SR leukemia
  TGI: > 21.5 µM
SW-620 colon
  TGI: > 51.9 µM
TK-10 renal
  TGI: 32.8 µM

## COc1cc2c[n+](C)c3c4cc5c(cc4ccc3c2cc1OC)OCO5
786-0 renal
  TGI: 21.7 µM
A498 renal
  TGI: 2.67 µM
HCT-116 colon
  TGI: 18.9 µM
HCT-15 colon
  TGI: > 100 µM
HL-60(TB) leukemia
  TGI: 22.5 µM
HOP-62 NSCLC
  TGI: 16.4 µM
IGROV1 ovarian
  TGI: 3.9 µM
KM12 colon
  TGI: 7.21 µM
MDA-MB-231 breast
  TGI: > 100 µM
NCI-H522 lung
  TGI: 2.06 µM
NCI/ADR-RES ovarian
  TGI: > 100 µM
SF-268 CNS
  TGI: 39.4 µM
SK-MEL-2 melanoma
  TGI: 6.97 µM
SK-MEL-5 melanoma
  TGI: 23.2 µM
SK-OV-3 ovarian
  TGI: 5.64 µM
SNB-19 CNS
  TGI: 21.5 µM
SR leukemia
  TGI: 22.8 µM
SW-620 colon
  TGI: 26 µM
TK-10 renal
  TGI: > 93.1 µM

## COc1ccc(OC)c2sc(N3C(=O)/C(=C/c4ccc(Cl)cc4)N=C3c3ccccc3)nc12
786-0 renal
  TGI: > 100 µM
A498 renal
  TGI: > 100 µM
HCT-116 colon
  TGI: > 100 µM
HCT-15 colon
  TGI: > 100 µM
HL-60(TB) leukemia
  TGI: > 100 µM
HOP-62 NSCLC
  TGI: > 100 µM
IGROV1 ovarian
  TGI: > 100 µM
KM12 colon
  TGI: > 100 µM
MDA-MB-231 breast
  TGI: > 100 µM
NCI-H522 lung
  TGI: > 100 µM
NCI/ADR-RES ovarian
  TGI: > 100 µM
SF-268 CNS
  TGI: > 100 µM
SK-MEL-2 melanoma
  TGI: > 100 µM
SK-MEL-5 melanoma
  TGI: > 100 µM
SK-OV-3 ovarian
  TGI: > 100 µM
SNB-19 CNS
  TGI: > 100 µM
SR leukemia
  TGI: > 100 µM
SW-620 colon
  TGI: > 100 µM
TK-10 renal
  TGI: > 100 µM

## O=c1[nH]c(C23CC4CC(CC(C4)C2)C3)cc2c1c(=O)oc1ccccc12
786-0 renal
  TGI: 3.1 µM
A498 renal
  TGI: 5.11 µM
HCT-116 colon
  TGI: 12.4 µM
HCT-15 colon
  TGI: 81.3 µM
HL-60(TB) leukemia
  TGI: > 100 µM
HOP-62 NSCLC
  TGI: 9.56 µM
IGROV1 ovarian
  TGI: 13 µM
KM12 colon
  TGI: > 96 µM
MDA-MB-231 breast
  TGI: 10.8 µM
NCI-H522 lung
  TGI: 11.1 µM
NCI/ADR-RES ovarian
  TGI: 18.9 µM
SF-268 CNS
  TGI: 9.52 µM
SK-MEL-2 melanoma
  TGI: 38.7 µM
SK-MEL-5 melanoma
  TGI: 18.3 µM
SK-OV-3 ovarian
  TGI: 11 µM
SNB-19 CNS
  TGI: 17.7 µM
SR leukemia
  TGI: 9.31 µM
SW-620 colon
  TGI: > 51.8 µM
TK-10 renal
  TGI: 12.2 µM

## O=C(c1ccccc1)c1ccc2nc3n(c2c1)C(c1c(F)cccc1F)SC3 (stereo not drawn)
786-0 renal
  TGI: 47.8 µM
A498 renal
  TGI: 13.5 µM
HCT-116 colon
  TGI: 13.5 µM
HCT-15 colon
  TGI: > 59 µM
HL-60(TB) leukemia
  TGI: > 100 µM
HOP-62 NSCLC
  TGI: 52.2 µM
IGROV1 ovarian
  TGI: > 100 µM
KM12 colon
  TGI: 14.3 µM
MDA-MB-231 breast
  TGI: > 100 µM
NCI-H522 lung
  TGI: 6.14 µM
NCI/ADR-RES ovarian
  TGI: 26.5 µM
SF-268 CNS
  TGI: > 70.2 µM
SK-MEL-2 melanoma
  TGI: 31.2 µM
SK-MEL-5 melanoma
  TGI: 18.1 µM
SK-OV-3 ovarian
  TGI: 26.7 µM
SNB-19 CNS
  TGI: > 100 µM
SR leukemia
  TGI: 9.4 µM
SW-620 colon
  TGI: > 100 µM
TK-10 renal
  TGI: > 100 µM

## CC(C)=CCC[C@@H](C)C1=C(O)C(O)C(C)=C2N=C(c3ccccc3)C(=O)OC21 (stereo partly drawn)
786-0 renal
  TGI: > 20.5 µM
A498 renal
  TGI: > 13.1 µM
HCT-116 colon
  TGI: > 8.46 µM
HCT-15 colon
  TGI: > 25 µM
HL-60(TB) leukemia
  TGI: 1.63 µM
HOP-62 NSCLC
  TGI: 8.5 µM
IGROV1 ovarian
  TGI: > 25 µM
KM12 colon
  TGI: > 18.3 µM
MDA-MB-231 breast
  TGI: 17.3 µM
NCI-H522 lung
  TGI: 1.9 µM
NCI/ADR-RES ovarian
  TGI: 3.13 µM
SF-268 CNS
  TGI: > 25 µM
SK-MEL-2 melanoma
  TGI: 6.75 µM
SK-MEL-5 melanoma
  TGI: 6.32 µM
SK-OV-3 ovarian
  TGI: 11.1 µM
SNB-19 CNS
  TGI: > 25 µM
SR leukemia
  TGI: > 20.5 µM
SW-620 colon
  TGI: > 25 µM
TK-10 renal
  TGI: > 25 µM

## OC1(CCc2ccccc2)COC(C(F)(F)F)(C(F)(F)F)C1 (stereo not drawn)
786-0 renal
  TGI: > 100 µM
A498 renal
  TGI: > 100 µM
HCT-116 colon
  TGI: > 100 µM
HCT-15 colon
  TGI: > 100 µM
HL-60(TB) leukemia
  TGI: > 100 µM
HOP-62 NSCLC
  TGI: > 100 µM
IGROV1 ovarian
  TGI: > 100 µM
KM12 colon
  TGI: > 100 µM
MDA-MB-231 breast
  TGI: > 100 µM
NCI-H522 lung
  TGI: > 100 µM
NCI/ADR-RES ovarian
  TGI: > 100 µM
SF-268 CNS
  TGI: > 100 µM
SK-MEL-2 melanoma
  TGI: > 100 µM
SK-MEL-5 melanoma
  TGI: > 100 µM
SK-OV-3 ovarian
  TGI: > 100 µM
SNB-19 CNS
  TGI: > 100 µM
SR leukemia
  TGI: > 100 µM
SW-620 colon
  TGI: > 100 µM
TK-10 renal
  TGI: > 100 µM

## O=C1C(=O)c2c(oc(=O)c3ccccc23)-c2ccccc21
786-0 renal
  TGI: > 25 µM
A498 renal
  TGI: > 25 µM
HCT-116 colon
  TGI: > 25 µM
HCT-15 colon
  TGI: > 25 µM
HL-60(TB) leukemia
  TGI: 15 µM
HOP-62 NSCLC
  TGI: > 25 µM
IGROV1 ovarian
  TGI: > 25 µM
KM12 colon
  TGI: > 25 µM
MDA-MB-231 breast
  TGI: > 25 µM
NCI-H522 lung
  TGI: > 25 µM
NCI/ADR-RES ovarian
  TGI: > 25 µM
SF-268 CNS
  TGI: > 25 µM
SK-MEL-2 melanoma
  TGI: > 25 µM
SK-MEL-5 melanoma
  TGI: > 25 µM
SK-OV-3 ovarian
  TGI: > 25 µM
SNB-19 CNS
  TGI: > 25 µM
SR leukemia
  TGI: > 25 µM
SW-620 colon
  TGI: > 25 µM
TK-10 renal
  TGI: > 25 µM

## COc1ccc(/C=C2\CCC(CNc3cc(C)on3)C2=O)cc1 (stereo not drawn)
786-0 renal
  TGI: > 100 µM
A498 renal
  TGI: > 100 µM
HCT-116 colon
  TGI: > 100 µM
HCT-15 colon
  TGI: > 100 µM
HL-60(TB) leukemia
  TGI: > 21.5 µM
HOP-62 NSCLC
  TGI: > 100 µM
IGROV1 ovarian
  TGI: > 100 µM
KM12 colon
  TGI: > 100 µM
MDA-MB-231 breast
  TGI: > 100 µM
NCI-H522 lung
  TGI: > 100 µM
NCI/ADR-RES ovarian
  TGI: > 100 µM
SF-268 CNS
  TGI: > 100 µM
SK-MEL-2 melanoma
  TGI: > 100 µM
SK-MEL-5 melanoma
  TGI: > 100 µM
SK-OV-3 ovarian
  TGI: > 100 µM
SNB-19 CNS
  TGI: > 95.5 µM
SR leukemia
  TGI: > 100 µM
SW-620 colon
  TGI: > 100 µM
TK-10 renal
  TGI: > 100 µM
